Measurements: patent US7316913B2, “Methods and means for influencing intracellular communication and intracellular organelle transport” (Stiftelsen Universitetsforskning Bergen, priority 2001, dated 2008)

Legend:
[1] = test system: VP22 intercellular exchange; details: destruction of the filamentary actin; cited from earlier work
TNTs between PC12 cells [2] = experiment: Number of TNTs in PC12 cells after cholesterol extraction (WGA staining, three-dimensional microscopy); format: cell-based, rat; details: half an hour, 2 h after passage, vs saccharose controls
PC12 cells [3] = experiment: Filipin staining of cellular cholesterol content; format: cell-based, rat; details: 5 millimolar methyl-β-cyclodextrin; filipin fluorescence, mean grey scale values
Protocol: FIG. 18—the effect of cholesterol on the stability of TNTs. Two hours after passage of PC12 cells, the cell culture medium was exchanged for DMEM with 5, 8 or 10 millimolar saccharose (controls) or DMEM with 5, 8 or 10 mM methyl-β-cyclodextrin and the cells incubated for half an hour at 30° C. and 10% CO2. After the addition of WGA a three-dimensional analysis of 10 randomly selected microscopic fields was carried out (Olympus IX70, 100× objective, […]™ System, Piezo-z-stepper, in each case 40 sections) and the number of TNTs determined. […] Quantifications yielded a strong reduction of the TNT number with increasing methyl-β-cyclodextrin concentration; 40% reduction at 5 millimolar methyl-β-cyclodextrin; 93% reduction at 8 millimolar methyl-β-cyclodextrin; 100% at 10 millimolar methyl-β-cyclodextrin (c1). […] For this purpose, the methyl-β-cyclodextrin or saccharose containing DMEM of the analysed cell was exchanged with DMEM having 20 microgramm per millilitre filipin and 15 minutes later the intensity of the fluorescence staining analysed in vivo with a FITC/TRITC/DAPI filter set (Chroma, Brattleboro). In detail, after excitation at 400 nm four randomly selected microscopic fields were imaged and the mean grey scale values determined. […]

PC12 cells [4] = experiment: Thymidin G1/S cell cycle block: mitosis stadia and TNT formation; format: cell-based, rat; details: 2.5 mM thymidin, 14 hours before passage; analysed ca. 1 hour after passage
Protocol: FIG. 12a—fluorescence microscopy image of PC12 cells ca. 1 hour after cell passage and staining with WGA, 20 minutes fixing in 4% paraformaldehyde/4% sucrose, 3 minutes treatment with 0.2% TRITON™ X-100 and nucleus staining with Dapi—left images in (a): the 14 hour long treatment of the cells before passage with 2.5 mM thymidin in the cell culture medium blocked the cells in the G1/S phase of the cell cycle and prevented a division of the cells; right images in (a): in non-treated PC12 cells (controls) there can be observed in the nucleus staining mitosis stadia (arrows). Despite the absence of mitosis stadia the thymidin treated PC12 cells form TNTs (arrow tips), (bar: 20 micrometer);
Via a three-dimensional videomicroscopic analysis of suprarenal medulla cells in accordance with Example 1 point 2a, b there was detected the formation of an organized TNT based network between the cells, via which a syncytium arises (FIGS. 2e, f, FIGS. 3n-q2, FIGS. 4a-c) and organelles can be unidirectionally transferred (FIGS. 4d-h, FIG. 14). TNTs were, in accordance with Example 16 found in all to date investigated cells structure systems such as PC12 cells, HEK cells (FIG. 16a) and primary cultures of the medulla (FIG. 16b) and of the hippocampus (FIG. 16c). With a special colouring method, moreover, very long TNTs have been found. […]

TNTs between PC12 cells [5] = format: cell-based, rat

For C=C1[C@@H](C)[C@H]2[C@H](Cc3ccccc3)NC(=O)[C@]23[C@H](OC(C)=O)/C=C/[C@@](C)(O)C(=O)[C@@H](C)C/C=C/[C@H]3[C@@H]1O [cytochalasin D], which “intercellular exchange of VP22” value [1] is on record?
Its value is “can be prevented”.

Which “reduction of the TNT number” value (TNTs between PC12 cells [2]; 8 millimolar methyl-β-cyclodextrin in DMEM) does the source give for methyl-β-cyclodextrin here?
Its value is 93%.

What about the “reduction of the TNT number” value (TNTs between PC12 cells [2]; 10 millimolar methyl-β-cyclodextrin in DMEM) of the same compound?
The value was 100%.

What about the “reduction of the cellular cholesterol content” value (PC12 cells [3]) of the same compound?
The value was 20%.

What does the source list for Cc1cn([C@H]2C[C@H](O)[C@@H](CO)O2)c(=O)[nH]c1=O [thymidin]?
TNT formation retained in comparison with the controls (PC12 cells [4]): 86.5%; number of mitosis stadia in comparison with the controls (PC12 cells [4]): 20%

With C/C1=C/C(=O)O[C@@H]2C[C@@H](CC[C@H](C)/C=C\CC1)O[C@@](O)([C@@H]1CSC(=O)N1)C2 [latrunculin B] as the compound, how does the “effect on TNT formation and on TNTs present” value (TNTs between PC12 cells [5]) read?
Its value is “TNTs no longer form and TNTs present are destroyed”.
